Measurements as given in ChEMBL document CHEMBL1130006, “Antimalarial activity of new dihydroartemisinin derivatives. 7. 4-(p-substituted phenyl)-4(R or S)-[10(alpha or beta)-dihydroartemisininoxy]butyric acids” (J Med Chem, 1997).
Values after ≈ are worked out from the molar mass of the structure shown.

What was measured:
[1] = system: Plasmodium falciparum; assay: In vitro inhibitory concentration against Plasmodium falciparum W2 Indochina; format: functional, organism-based
[2] = system: Plasmodium falciparum; assay: In vitro inhibitory concentration against Plasmodium falciparum D6 (Sierra Leone); format: functional, organism-based
[3] = species on record: Mus musculus; assay: Dose that causes 50% suppression of Plasmodium berghei parasitaemia in the treated mice (Mus musculus) compared to untreated controls.; format: functional
[4] = system: Mus musculus; assay: T/C is life span of treated mice/control at a compound dose of 4 (mg/kg); format: functional
[5] = system: Mus musculus; assay: T/C is life span of treated mice/control at a compound dose of 64 (mg/kg); format: functional
[6] = system: Mus musculus; assay: T/C is life span of treated mice/control at a compound dose of 16 (mg/kg); format: functional
[7] = species on record: Mus musculus; assay: Dose that causes 90% suppression of Plasmodium berghei parasitaemia in the treated mice (Mus musculus) compared to untreated controls.; format: functional
[8] = system: Mus musculus; assay: T/C is life span of treated mice/control at a compound dose of 16,(mg/kg); format: functional

| SMILES | IC50 [1] | IC50 [2] | SD50 [3] | T/C [4] | T/C [5] | T/C [6] | SD90 [7] | T/C [8] |
| --- | --- | --- | --- | --- | --- | --- | --- | --- |
| COC(=O)CC[C@@H](O[C@H]1O[C@@H]2O[C@@]3(C)CC[C@H]4[C@H](C)CCC([C@H]1C)[C@@]24OO3)c1ccc(Cl)cc1 (stereo not given in full) | 0.656 ng/mL (≈ 1.33 nM) | 0.391 ng/mL (≈ 0.79 nM) | – | – | – | – | – | – |
| COC(=O)CC[C@@H](O[C@@H]1O[C@@H]2O[C@@]3(C)CC[C@H]4[C@H](C)CCC([C@H]1C)[C@@]24OO3)c1ccc(Cl)cc1 (stereo not given in full) | 0.629 ng/mL (≈ 1.27 nM) | 0.728 ng/mL (≈ 1.47 nM) | – | – | – | – | – | – |
| C[C@@H]1CCC2[C@@H](C)[C@H](OC(CCC(=O)O)c3ccc(Br)cc3)O[C@@H]3OC4(C)CC[C@@H]1C23OO4 (stereo not given in full) | 0.313 ng/mL (≈ 0.596 nM) | 0.405 ng/mL (≈ 0.771 nM) | 16.26 mg/kg | 2.7 days | 5.8 days | 3.5 days | 48.18 mg/kg | – |
| COC(=O)CCC(O[C@@H]1O[C@@H]2OC3(C)CC[C@H]4[C@H](C)CCC([C@H]1C)C24OO3)c1ccc(OC)cc1 (stereo not given in full) | 0.647 ng/mL (≈ 1.32 nM) | 0.827 ng/mL (≈ 1.68 nM) | – | – | – | – | – | – |
| C[C@H]1C(Oc2ccc(C(=O)[O-])cc2)O[C@@H]2O[C@]3(C)CC[C@H]4[C@H](C)CCC1C24OO3.[Na+] (stereo not given in full) | – | – | 56 mg/kg | – | 4.3 days | 2.7 days | – | – |
| C[C@@H]1CCC2[C@@H](C)[C@H](OC(CCC(=O)O)c3ccc(F)cc3)O[C@@H]3OC4(C)CC[C@@H]1C23OO4 (stereo not given in full) | 1.34 ng/mL (≈ 2.88 nM) | 2.21 ng/mL (≈ 4.76 nM) | 28.16 mg/kg | 1.5 days | 3.3 days | 2.8 days | 58.07 mg/kg | – |
| COc1ccc(C(CCC(=O)O)O[C@@H]2O[C@@H]3OC4(C)CC[C@H]5[C@H](C)CCC([C@H]2C)C35OO4)cc1 (stereo not given in full) | 3.45 ng/mL (≈ 7.24 nM) | 3.82 ng/mL (≈ 8.01 nM) | 25.06 mg/kg | 1.7 days | 4 days | 2.5 days | 54.99 mg/kg | – |
| C[C@@H]1CCC2[C@@H](C)[C@@H](OC(CCC(=O)O)c3ccc(Cl)cc3)O[C@@H]3OC4(C)CC[C@@H]1C23OO4 (stereo not given in full) | 1.26 ng/mL (≈ 2.62 nM) | 2.4 ng/mL (≈ 5 nM) | – | – | – | – | – | – |
| COC(=O)CCC(O[C@@H]1O[C@@H]2OC3(C)CC[C@H]4[C@H](C)CCC([C@H]1C)C24OO3)c1ccc(Br)cc1 (stereo not given in full) | 0.543 ng/mL (≈ 1.01 nM) | 0.673 ng/mL (≈ 1.25 nM) | – | – | – | – | – | – |
| C[C@@H]1CCC2[C@@H](C)[C@@H](OC(CCC(=O)O)c3ccc(Br)cc3)O[C@@H]3OC4(C)CC[C@@H]1C23OO4 (stereo not given in full) | 0.419 ng/mL (≈ 0.797 nM) | 1.36 ng/mL (≈ 2.59 nM) | – | – | – | – | – | – |
| COC(=O)CCC(O[C@@H]1O[C@@H]2OC3(C)CC[C@H]4[C@H](C)CCC([C@H]1C)C24OO3)c1ccc(F)cc1 (stereo not given in full) | 0.398 ng/mL (≈ 0.832 nM) | 0.43 ng/mL (≈ 0.9 nM) | – | – | – | – | – | – |
| C[C@@H]1CCC2[C@@H](C)[C@H](OC(CCC(=O)O)c3ccc(Cl)cc3)O[C@@H]3OC4(C)CC[C@@H]1C23OO4 (stereo not given in full) | 0.357 ng/mL (≈ 0.742 nM) | 0.38 ng/mL (≈ 0.79 nM) | 14.39 mg/kg | 2.3 days | 4.8 days | – | 45.04 mg/kg | 3.8 days |
| COC(=O)CCC(O[C@H]1O[C@@H]2OC3(C)CC[C@H]4[C@H](C)CCC([C@H]1C)C24OO3)c1ccc(Cl)cc1 (stereo not given in full) | 0.794 ng/mL (≈ 1.6 nM) | 0.903 ng/mL (≈ 1.82 nM) | – | – | – | – | – | – |
| COC(=O)CCC(O[C@H]1O[C@@H]2OC3(C)CC[C@H]4[C@H](C)CCC([C@H]1C)C24OO3)c1ccc(Br)cc1 (stereo not given in full) | 0.62 ng/mL (≈ 1.15 nM) | 1.01 ng/mL (≈ 1.87 nM) | – | – | – | – | – | – |
| COC(=O)CCC(O[C@H]1O[C@@H]2OC3(C)CC[C@H]4[C@H](C)CCC([C@H]1C)C24OO3)c1ccc(F)cc1 (stereo not given in full) | 0.488 ng/mL (≈ 1.02 nM) | 0.616 ng/mL (≈ 1.29 nM) | – | – | – | – | – | – |
| C[C@@H]1CCC2[C@@H](C)[C@@H](OC(CCC(=O)O)c3ccc(F)cc3)O[C@@H]3OC4(C)CC[C@@H]1C23OO4 (stereo not given in full) | 0.828 ng/mL (≈ 1.78 nM) | 2.33 ng/mL (≈ 5.02 nM) | – | – | – | – | – | – |
| C[C@@H]1CC[C@H]2[C@@H](C)C(=O)O[C@@H]3O[C@@]4(C)CC[C@@H]1[C@]32OO4 [ARTEMISININ] | 2.14 ng/mL (≈ 7.57 nM) | 3.91 ng/mL (≈ 13.9 nM) | – | – | – | – | – | – |
